From ChEMBL document CHEMBL4406808, “Synthesis and assessment of phenylacrylamide derivatives as potential anti-oxidant and anti-inflammatory agents” (Eur J Med Chem, 2019)
pIC50: −log10 of the molar value. Blank lines part the entries; values can stand above or below the compound they belong to. The source made the active and inactive calls. The calls are words filed in the database; no cut-off is given here.

How the values were obtained:
HBZY-1 [1] = assay: Cytoprotection activity against H2O2-induced cell death in rat HBZY-1 cells assessed as cell viability at 6 uM preincubated with compound for 2 hrs followed by H2O2 addition and measured after 24 hrs by MTT assay (reference value: 62.1%); assay type: functional; conditions: read-out: Activity
HBZY-1 [2] = assay: Cytotoxicity against rat HBZY-1 cells assessed as reduction in cell viability after 2 hrs by MTT assay; assay type: cell-based; conditions: HBZY-1, 2 h
[3] = target: Kelch-like ECH-associated protein 1 (Rattus norvegicus) (UniProt P57790); assay: Binding affinity to Keap1 in rat HBZY-1 cells assessed as disruption of Keap1/Nrf2 complex by measuring Keap1 expression in presence of DTT by Western blot analysis; assay type: cell-based
Sequence of Kelch-like ECH-associated protein 1 (Rattus norvegicus) (P57790 whole entry): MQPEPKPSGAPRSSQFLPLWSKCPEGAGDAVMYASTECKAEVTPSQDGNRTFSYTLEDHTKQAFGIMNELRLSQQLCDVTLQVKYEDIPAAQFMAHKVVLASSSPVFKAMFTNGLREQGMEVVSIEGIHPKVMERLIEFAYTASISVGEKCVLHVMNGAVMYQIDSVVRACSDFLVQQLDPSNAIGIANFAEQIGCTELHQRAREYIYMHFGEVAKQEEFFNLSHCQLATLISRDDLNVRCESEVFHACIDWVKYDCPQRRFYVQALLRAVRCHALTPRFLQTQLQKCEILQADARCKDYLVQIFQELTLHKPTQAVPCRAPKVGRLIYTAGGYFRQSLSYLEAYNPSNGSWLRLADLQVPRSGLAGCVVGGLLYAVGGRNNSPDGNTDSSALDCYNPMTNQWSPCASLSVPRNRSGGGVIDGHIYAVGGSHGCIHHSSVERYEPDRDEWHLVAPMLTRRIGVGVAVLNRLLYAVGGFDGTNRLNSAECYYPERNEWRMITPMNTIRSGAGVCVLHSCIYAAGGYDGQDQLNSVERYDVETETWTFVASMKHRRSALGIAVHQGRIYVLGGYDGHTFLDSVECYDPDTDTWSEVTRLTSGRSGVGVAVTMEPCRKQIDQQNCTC

HBZY-1 [4] = assay: Cytoprotection against H2O2-induced cell death in rat HBZY-1 cells assessed as increase in cell viability at 6 uM preincubated for 2 hrs followed by H2O2 addition and measured after 24 hrs in presence of GCL inhibitor BSO by MTT assay; assay type: functional, cell-based
[5] = target: Kelch-like ECH-associated protein 1 (Rattus norvegicus) (UniProt P57790); assay: Binding affinity to Keap1 in rat HBZY-1 cells assessed as induction of Keap1/Nrf2 signaling by measuring increase in GCLM protein expression by Western blot analysis; assay type: cell-based
[6] = target: Kelch-like ECH-associated protein 1 (Rattus norvegicus) (UniProt P57790); assay: Binding affinity to Keap1 in rat HBZY-1 cells assessed as induction of Keap1/Nrf2 signaling by measuring increase in NQO-1 protein expression at 6 uM by Western blot analysis; assay type: cell-based; conditions: TDE = time-dependent effect
HBZY-1 [7] = assay: Antioxidant activity in rat HBZY-1 cells assessed as reduction in H2O2-induced intracellular ROS accumulation incubated with compound prior to H2O2 addition by DCFH-DA based flow cytometry; assay type: functional, cell-based
HBZY-1 [8] = assay: Cytoprotection against H2O2-induced cell death in rat HBZY-1 cells assessed as increase in cell viability at 6 uM preincubated for 2 hrs followed by H2O2 addition and measured after 24 hrs in presence of HO-1 inhibitor ZnPP by MTT assay; assay type: functional, cell-based
[9] = target: Kelch-like ECH-associated protein 1 (Rattus norvegicus) (UniProt P57790); assay: (§1) Binding affinity to Keap1 in rat HBZY-1 cells transfected with pNF-kB-Luc/pRL-CMV assessed as induction of Keap1/Nrf2 signaling by measuring reduction in LPS-induced NFkappaB activation preincubated for 30 mins followed by LPS stimulation and measured after 12 hrs by luciferase reporter gene assay; assay type: cell-based
[10] = target: Kelch-like ECH-associated protein 1 (Rattus norvegicus) (UniProt P57790); assay: as §1, with “activation at 6 uM” for “activation”, “hrs in presence of HO-1 inhibitor ZnPP” for “hrs”; assay type: cell-based
[11] = target: Kelch-like ECH-associated protein 1 (Rattus norvegicus) (UniProt P57790); assay: Binding affinity to Keap1 in rat HBZY-1 cells assessed as disruption of Keap1/Nrf2 complex by measuring Nrf2 expression in presence of DTT by Western blot analysis; assay type: cell-based
[12] = target: T1, Nuclear factor erythroid 2-related factor 2 (Homo sapiens) (UniProt Q16236); assay: Activation of Nrf2 (unknown origin) expressed in HEK293 cells co-transfected with ARE luciferase reporter plasmid after 16 hrs by dual luciferase reporter gene assay; assay type: cell-based
T1 sequence (whole entry): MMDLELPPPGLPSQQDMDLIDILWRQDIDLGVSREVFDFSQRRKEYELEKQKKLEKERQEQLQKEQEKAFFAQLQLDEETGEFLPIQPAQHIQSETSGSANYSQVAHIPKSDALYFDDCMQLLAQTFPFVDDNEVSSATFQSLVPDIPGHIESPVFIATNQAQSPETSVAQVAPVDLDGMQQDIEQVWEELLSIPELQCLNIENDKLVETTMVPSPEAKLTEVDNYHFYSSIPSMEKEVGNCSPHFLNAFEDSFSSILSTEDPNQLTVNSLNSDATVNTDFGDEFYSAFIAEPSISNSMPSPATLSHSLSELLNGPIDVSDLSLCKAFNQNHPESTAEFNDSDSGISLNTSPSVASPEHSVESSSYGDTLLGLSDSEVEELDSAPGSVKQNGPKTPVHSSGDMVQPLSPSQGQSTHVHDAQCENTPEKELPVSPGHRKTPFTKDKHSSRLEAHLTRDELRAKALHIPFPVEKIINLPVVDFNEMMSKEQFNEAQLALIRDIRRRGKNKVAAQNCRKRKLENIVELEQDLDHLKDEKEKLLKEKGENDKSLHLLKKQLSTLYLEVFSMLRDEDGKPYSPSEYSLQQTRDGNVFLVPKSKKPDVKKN

[13] = target: Kelch-like ECH-associated protein 1 (Rattus norvegicus) (UniProt P57790); assay: Binding affinity to Keap1 in rat HBZY-1 cells assessed as induction of Keap1/Nrf2 signaling by measuring increase in GCLC protein expression by Western blot analysis; assay type: cell-based
HBZY-1 [14] = assay: Cytoprotection against H2O2-induced cell death in rat HBZY-1 cells assessed as increase in cell viability at 6 uM preincubated for 2 hrs followed by H2O2 addition and measured after 24 hrs in presence of Nrf2 inhibitor TRG by MTT assay; assay type: functional, cell-based
[15] = target: Kelch-like ECH-associated protein 1 (Rattus norvegicus) (UniProt P57790); assay: Binding affinity to Keap1 in rat HBZY-1 cells assessed as induction of Keap1/Nrf2 signaling by measuring increase in HO-1 protein expression at 6 uM by Western blot analysis; assay type: cell-based; conditions: TDE = time-dependent effect
[16] = target: Kelch-like ECH-associated protein 1 (Rattus norvegicus) (UniProt P57790); assay: Binding affinity to Keap1 in rat HBZY-1 cells assessed as induction of Keap1/Nrf2 signaling by measuring increase in GCLC protein expression at 6 uM by Western blot analysis; assay type: cell-based; conditions: TDE = time-dependent effect
[17] = target: Kelch-like ECH-associated protein 1 (Rattus norvegicus) (UniProt P57790); assay: Binding affinity to Keap1 in rat HBZY-1 cells assessed as induction of Keap1/Nrf2 signaling by measuring increase in GCLM protein expression at 6 uM by Western blot analysis; assay type: cell-based; conditions: TDE = time-dependent effect
HBZY-1 [18] = assay: Cytoprotection activity against H2O2-induced cell death in rat HBZY-1 cells assessed as increase in cell viability preincubated with compound for 2 hrs followed by H2O2 addition and measured after 24 hrs by MTT assay; assay type: functional, cell-based
[19] = target: Kelch-like ECH-associated protein 1 (Rattus norvegicus) (UniProt P57790); assay: Binding affinity to Keap1 in rat HBZY-1 cells assessed as induction of Keap1/Nrf2 signaling by measuring increase in HO-1 protein expression by Western blot analysis; assay type: cell-based
[20] = target: Kelch-like ECH-associated protein 1 (Rattus norvegicus) (UniProt P57790); assay: Binding affinity to Keap1 in rat HBZY-1 cells assessed as disruption of Keap1/Nrf2 complex by measuring reduction in Keap1 protein expression by Western blot analysis; assay type: cell-based
HBZY-1 [21] = assay: Antiinflammatory activity in rat HBZY-1 cells assessed as reduction in LPS-induced NO production preincubated for 30 mins followed by LPS stimulation and measured after 24 hrs by Griess assay; assay type: functional, cell-based
HBZY-1 [22] = assay: Antiinflammatory activity in rat HBZY-1 cells assessed as reduction in nitric oxide production at 6 uM preincubated for 30 mins followed by LPS stimulation and measured after 24 hrs in presence of Nrf2 inhibitor TRG by Griess assay; assay type: functional, cell-based
[23] = target: Kelch-like ECH-associated protein 1 (Rattus norvegicus) (UniProt P57790); assay: Binding affinity to Keap1 in rat HBZY-1 cells assessed as induction of Nrf2 nuclear translocation by measuring increase in ratio of nuclear to cytosolic Nrf2 level by Western blot analysis; assay type: cell-based
[24] = target: Kelch-like ECH-associated protein 1 (Rattus norvegicus) (UniProt P57790); assay: Binding affinity to Keap1 in rat HBZY-1 cells assessed as disruption of Keap1/Nrf2 complex by measuring increase in Nrf2 expression by Western blot analysis; assay type: cell-based
HBZY-1 [25] = assay: Antiinflammatory activity in rat HBZY-1 cells assessed as reduction in NO production at 6 uM preincubated for 30 mins followed by LPS stimulation and measured after 24 hrs in presence of HO-1 inhibitor ZnPP by Griess assay; assay type: functional, cell-based
[26] = target: Kelch-like ECH-associated protein 1 (Rattus norvegicus) (UniProt P57790); assay: Binding affinity to Keap1 in rat HBZY-1 cells assessed as induction of Keap1/Nrf2 signaling by measuring increase in NQO-1 protein expression by Western blot analysis; assay type: cell-based
[27] = target: Kelch-like ECH-associated protein 1 (Rattus norvegicus) (UniProt P57790); assay: Binding affinity to Keap1 in rat HBZY-1 cells assessed as induction of Keap1/Nrf2 signaling by measuring induction of Nrf2 nuclear translocation by measuring increase in ratio of nuclear to cytosolic Nrf2 level at 6 uM by Western blot analysis; assay type: cell-based; conditions: TDE = time-dependent effect
[28] = target: Kelch-like ECH-associated protein 1 (Rattus norvegicus) (UniProt P57790); assay: as §1, with “activation at 6 uM” for “activation”, “hrs in presence of Nrf2 inhibitor TRG” for “hrs”; assay type: cell-based
[29] = target: T1, Nuclear factor erythroid 2-related factor 2 (Homo sapiens); assay: Activation of Nrf2 (unknown origin) expressed in HEK293 cells co-transfected with ARE luciferase reporter plasmid at 20 uM after 16 hrs by dual luciferase reporter gene assay; assay type: cell-based

Compound: COc1ccccc1NC(=O)/C=C/c1ccccc1C(F)(F)F
- viability at 6 µM (HBZY-1 [1]): 65.6 to 96.4%
- pIC50 (HBZY-1 [2]): < 3.70

Compound: COc1ccc(NC(=O)/C=C/c2ccccc2C(F)(F)F)cc1
- viability at 6 µM (HBZY-1 [1]): 65.6 to 96.4%
- pIC50 (HBZY-1 [2]): < 3.70

- Activity [3]: inactive
- Activity [5]: Dose-dependent effect
- Activity [6]: Tde
- Activity [9]: Dose-dependent effect
- Activity [10]: inactive
- Activity [11]: inactive
- Activity [12]: Dose-dependent effect
- Activity [13]: Dose-dependent effect
- Activity [15]: Tde
- Activity [16]: Tde
- Activity [17]: Tde
- Activity [19]: Dose-dependent effect
- Activity [20]: Active
- Activity [23]: Dose-dependent effect
- Activity [24]: Active
- Activity [26]: Dose-dependent effect
- Activity [27]: Tde
- Activity [28]: inactive
Compound: COc1ccccc1NC(=O)/C(C#N)=C/c1ccccc1C(F)(F)F
- Activity (HBZY-1 [4]): inactive
- Activity (HBZY-1 [7]): Dose-dependent effect
- Activity (HBZY-1 [8]): inactive
- Activity (HBZY-1 [14]): inactive
- Activity (HBZY-1 [18]): Dose-dependent effect
- Activity (HBZY-1 [21]): Dose-dependent effect
- Activity (HBZY-1 [22]): inactive
- viability at 6 µM (HBZY-1 [1]): 65.6 to 96.4%
- Activity (HBZY-1 [25]): inactive
- pIC50 (HBZY-1 [2]): < 3.70

Compound: CCCCNC(=O)/C(C#N)=C/c1ccccc1C(F)(F)F
- viability at 6 µM (HBZY-1 [1]): 65.6 to 96.4%
- pIC50 (HBZY-1 [2]): < 3.70

- Activity [29]: Active
Compound: CC(C)(C)c1cc(O)ccc1O

Compound: COc1ccccc1NC(=O)/C(C#N)=C/c1ccc(C)cc1
- viability at 6 µM (HBZY-1 [1]): 65.6 to 96.4%
- pIC50 (HBZY-1 [2]): < 3.70

Compound: COc1ccccc1C(=O)/C=C/c1ccccc1C(F)(F)F
- viability at 6 µM (HBZY-1 [1]): 80.3%

Compound: COc1cc(NC(=O)/C=C/c2ccccc2C(F)(F)F)cc(OC)c1OC
- viability at 6 µM (HBZY-1 [1]): 65.6 to 96.4%
- pIC50 (HBZY-1 [2]): < 3.70

Compound: C[S+]([O-])CCCCN=C=S (centres undefined) [SULFORAPHANE]
- viability at 6 µM (HBZY-1 [1]): 80%

Compound: COc1ccccc1NC(=O)/C(C#N)=C/c1cccc(C)c1
- viability at 6 µM (HBZY-1 [1]): 65.6 to 96.4%
- pIC50 (HBZY-1 [2]): < 3.70

Compound: COc1ccc(NC(=O)/C(C#N)=C/c2ccccc2C(F)(F)F)cc1
- viability at 6 µM (HBZY-1 [1]): 82.4%
- pIC50 (HBZY-1 [2]): < 3.70

Compound: COc1ccc(CCNC(=O)/C(C#N)=C/c2ccccc2C(F)(F)F)cc1OC
- viability at 6 µM (HBZY-1 [1]): 65.6 to 96.4%
- pIC50 (HBZY-1 [2]): < 3.70

Compound: COc1ccc(/C=C(\C#N)C(=O)Nc2ccccc2OC)cc1
- viability at 6 µM (HBZY-1 [1]): 65.6 to 96.4%
- pIC50 (HBZY-1 [2]): < 3.70
